PubChem BioAssay AID2384 (Southern Research Specialized Biocontainment Screening …, 2010)
Where “and” joins values, the source holds several entries; their conditions need not be identical. Identical values can stand only once.

The compounds below were run on S. typhi GFP reporter counter-screen, fluorescence, 4 h (assay: S. typhi counter-screen signal inhibition – fluorescence, 4 h, counter-screen for PhoP regulon inhibitor project, dose response (AID 2384)).
Compound `COc1c(N2CCNC(C)C2)c(F)cc2c(=O)c(C(=O)O)cn(C3CC3)c12` (stereo not drawn) has an IC50 of 1.1 µM. In the case of `O=[N+]([O-])/C=C/c1cc2ccccc2[nH]1`, the IC50 is reported as 36.9 µM. `CCN1CCN(CCNC(=O)c2ccc3c(c2)N(Cc2ccc(F)cc2)C(=O)/C(=C/c2ccccc2)S3)CC1` was tested, and the IC50 was 45.5 µM. `C/C(O)=C\c1nc2ccccc2oc1=O` gave an IC50 of 41.6 µM. For `CN(Cc1ccccc1)CC(O)COc1ccc(CNCCCOc2cccnc2)cc1` (stereo not drawn), the IC50 was 53.3 µM. For `CCc1ccc(N2CC(C(=O)N/N=C/c3cc([N+](=O)[O-])ccc3O)CC2=O)cc1` (stereo not drawn), the IC50 was 48.7 µM. For `CCc1cccc2c(C(=O)COC(=O)c3ccc([N+](=O)[O-])s3)c[nH]c12`, the IC50 was 18.7 µM. `COc1ccccc1Nc1nc(NCc2ccco2)c2ccccc2n1` showed an IC50 of 56.3 µM. Work on `Oc1ccccc1-c1cc(C(F)(F)C(F)F)[nH]n1` yielded an IC50 of 81.2 µM. With `Cc1ccc(-c2c[n+](CC(=O)Nc3nc(-c4ccccc4)cs3)c3n2CCC3)cc1` the IC50 was 21.2 µM. Compound `Cc1[nH]cnc1C(=O)N/N=C/c1ccc([N+](=O)[O-])s1` has an IC50 of 37.2 µM. In the case of `O=C(Nc1cccc(Cl)c1)Nc1nccs1`, the IC50 is reported as 57.3 µM. `O=C(CC(=O)c1c(F)cccc1Cl)c1ccccc1O` showed an IC50 of 42.9 µM. `CCCCCC(=O)NNC(=S)NC(C)=O` gave an IC50 of 29.1 µM. With `Cc1cccc2c1Sc1ccc(Cl)cc1CC2N1CCNCC1` (stereo not drawn) the IC50 was 71.8 µM. Work on `CCOc1ccc(/C=N/NC(=O)c2[nH]ncc2Br)c(O)c1` yielded an IC50 of 43.7 µM. `CCCCOc1ccc(NC2=NC3(CCCC3)N=C(N)N2)cc1` gave an IC50 of 94.8 µM. Work on `COc1cccc(/C=N\NC(=O)Cn2nnc3ccccc32)c1O` yielded an IC50 of 94.6 µM. Work on `Cc1ccc(-c2c[n+](Cc3ccc(Cl)cc3)c3n2CCC3)cc1` yielded an IC50 of 46 µM. For `CCn1cc(C(=O)O)c(=O)c2cc(F)c(N3CCN(C(=S)NC(=O)c4cccc(F)c4)CC3)cc21`, the IC50 was 94.6 µM. Compound `O=C(N/N=C/c1cc(Cl)ccc1O)c1cccnc1` has an IC50 of 20.9 µM. Compound `CCOc1cc(CNCCCN2CCOCC2)cc(Br)c1OCC(=O)Nc1cccc(C(F)(F)F)c1` has an IC50 of 47.1 µM. For `O=C(N/N=C/c1c[nH]c2ccccc12)c1cc2ccccc2o1`, the IC50 was 99.8 µM. `O=C(CC(=O)c1cc(Cl)ccc1O)c1ccccc1` showed an IC50 of 26.8 µM. Compound `CCOC(=O)C1=C(C(C)=O)C(c2cccnc2)C(C#N)=C(N)O1` (stereo not drawn) has an IC50 of 57.5 µM. In the case of `CCN(CC)C(=S)SSC(=S)N(CC)CC`, the IC50 is reported as 74.7 µM. In the case of `CCOC(=O)c1c(-c2ccc(-c3ccccc3)cc2)csc1NC(=O)CNCCN(C)C`, the IC50 is reported as 82.7 µM. For `CCN(CCC(=O)Nc1ccc(Br)c(C)c1)Cc1ccccc1`, the IC50 was 37.9 µM. `CCCCOCCCNc1ncnc2c1[nH]c1ccccc12` was tested, and the IC50 was 77.4 µM. `CCC(=O)c1ccc(OCC(O)CNCCc2ccc(Cl)cc2)cc1` (stereo not drawn) was tested, and the IC50 was 147 µM. With `Cc1ccc(-c2csc(NC(=O)C[n+]3cc(-c4ccccc4)n4c3CCC4)n2)cc1` the IC50 was 19.3 µM. `Oc1[nH]c2ccccc2c1N=NC(=S)N1CCOCC1` showed an IC50 of 21.2 µM. Work on `CCCCCCC[N+](CC)(CC)CCCCc1ccc(Cl)cc1` yielded an IC50 of 37.3 µM. Work on `CCn1cnc2cc(NCc3ccc(Br)cc3)ccc21` yielded an IC50 of 138 µM. For `CCN(CC)c1ccc(CNc2nc3ccccc3n2C)cc1`, the IC50 was 81.6 µM. `O=C(COc1ccc(Br)cc1CNCCc1ccccc1)NCc1ccccc1` gave an IC50 of 105 µM. In the case of `COc1ccc(-c2cnc(NCc3cc4c(cc3[N+](=O)[O-])OCO4)n2C)cc1`, the IC50 is reported as 145 µM. `COc1ccc(Nc2cc(C)nc(NCc3ccccc3)n2)cc1` was tested, and the IC50 was 38.5 µM. `Clc1ccc(/C=C/c2ncc[nH]2)c(Cl)c1` showed an IC50 of 32.5 µM. With `C#CCOCCOCCOCCNc1nc(N2CCN(C(=O)C(Cc3cc4ccccc4[nH]3)n3cc(C(N)C(C)CC)nn3)CC2)nc(N2CCN(C(=O)C(Cc3cc4ccccc4[nH]3)n3cc(C(N)C(C)CC)nn3)CC2)n1` (stereo not drawn) the IC50 was 134 µM. `O=C(NC1CCCC1)c1ccc(Br)s1` showed an IC50 of 49.5 µM. For `Cc1ccc(-n2c(C)cc(C3N=C(N)Nc4nc5ccccc5n43)c2C)c(C)c1` (stereo not drawn), the IC50 was 26.6 µM. `Cc1cc(C)c2nc(C)cc(N/N=C/c3ccc(O)cc3)c2c1` was tested, and the IC50 was 57.9 µM. With `O=C(N/N=C/c1cc([N+](=O)[O-])ccc1O)C1CC1` the IC50 was 20.2 µM. Work on `CCCCOc1ccc(C(=O)OC2CC(C)N(C)CC2C)cc1` (stereo not drawn) yielded an IC50 of 26.7 µM. With `O=C(Nc1csc(Cl)c1)c1ccccc1` the IC50 was 70.6 µM. For `N=c1c2c(n(Cc3ccc(Cl)c(Cl)c3)c3c1CCC3)CCCC2`, the IC50 was 31.1 µM. Work on `CCCN(CCC)CCNC(=O)C1CCN(Cc2nc(-c3ccc(Cl)cc3)oc2C)CC1` yielded an IC50 of 57.1 µM. `Cc1ccc2c(c1)c1c(n2CC(O)CN2CCC(C)CC2)CCCC1` (stereo not drawn) gave an IC50 of 82.4 µM. `C=CCNc1ncnc2c1[nH]c1ccc(Cl)cc12` was tested, and the IC50 was 37.2 µM. Compound `CCn1cc(C(=O)NCC(C)C)c(=O)c2cc(F)c(N3CCN(C)CC3)cc21` has an IC50 of 64.4 µM. `CN1CCN(CCCN2c3ccccc3Sc3ccc(Cl)cc32)CC1` was tested, and the IC50 was 41.7 µM and 23.8 µM. With `CCCCCCOC(=O)C[N+](C)(C)CCOC1CC2CCC1(C)C2(C)C` (stereo not drawn) the IC50 was 27 µM. `Cc1ccc2nc(N(CCCN(C)C)C(=O)c3ccc4c(c3)CCCC4)sc2c1` gave an IC50 of 31.8 µM. Compound `Oc1ccc(C[C@H]2CNCCN2CCCCC2CCCCC2)cc1` has an IC50 of 70.5 µM. `CO[C@H]1/C=C/O[C@@]2(C)Oc3c(C)c(O)c4c(O)c(c(C=NN5CCN(C)CC5)c(O)c4c3C2=O)NC(=O)/C(C)=C\C=C\[C@H](C)[C@H](O)[C@@H](C)[C@@H](O)[C@@H](C)[C@H](OC(C)=O)[C@@H]1C` showed an IC50 of 8.94 µM. Compound `Oc1c(I)cc(Cl)c2cccnc12` has an IC50 of 5.62 µM. With `CC[C@H]1OC(=O)[C@H](C)[C@@H](O[C@H]2C[C@@](C)(OC)[C@@H](O)[C@H](C)O2)[C@H](C)[C@@H](O[C@@H]2O[C@H](C)C[C@H](N(C)C)[C@H]2O)[C@](C)(OC)C[C@@H](C)C(=O)[C@H](C)[C@@H](O)[C@]1(C)O` the IC50 was 29.7 µM. `NS(=O)(=O)c1ccc(CNc2ccc3ccccc3n2)cc1` showed an IC50 of 145 µM. Compound `N/C(=N\OS(=O)(=O)c1ccc(Cl)cc1)c1cccnc1` has an IC50 of 12.4 µM. For `CC1CCN(CCOCCOc2ccc(Br)cc2Cl)CC1`, the IC50 was 97.8 µM. With `C#CCOCCOCCOCCNc1nc(N2CCN(C(=O)CCCCCCCCCCNC(=O)Cn3cc(CCCCCN)nn3)CC2)nc(N2CCN(C(=O)CCCCCCCCCCNC(=O)[C@H]([C@@H](C)CC)n3cc(CCCCN=C(N)N)nn3)CC2)n1` the IC50 was 38.2 µM. Compound `O=C(Oc1c(Cl)cc(Cl)c2cccnc12)c1ccco1` has an IC50 of 15.6 µM. `O=[N+]([O-])c1ccc(N2CCNCC2)cc1NCc1cccnc1` was tested, and the IC50 was 73.8 µM. With `Oc1ccc(CN2CCN(c3ccccc3)CC2)c2cccnc12` the IC50 was 99.6 µM. `CCCCNC1=CC(=O)C(=O)c2ccccc21` was tested, and the IC50 was 72.8 µM. With `O=C1OCCN1/N=C/c1ccc([N+](=O)[O-])o1` the IC50 was 28.2 µM. In the case of `CN(C)C1C(=O)C(C(N)=O)=C(O)C2(O)C(=O)C3=C(O)c4c(O)cccc4C(C)(O)C3CC12` (stereo not drawn), the IC50 is reported as 1.71 µM. `CCn1cc(C(=O)NCCN(C)C)c(=O)c2cc(F)c(N3CCN(C)CC3)cc21` was tested, and the IC50 was 52.8 µM. Work on `CCCCCCCCCCCCCCCCn1cc[n+](C)c1` yielded an IC50 of 34.8 µM. In the case of `O=C(CSc1nc2ccccc2[nH]1)Nc1ccc(F)c(F)c1`, the IC50 is reported as 74.2 µM. `C#CCOCCOCCOCCNc1nc(N2CCN(C(=O)CCCCCCCCCCNC(=O)[C@H](CO)n3cc(CCCCCN)nn3)CC2)nc(N2CCN(C(=O)CCCCCCCCCCNC(=O)[C@H](CCCN=C(N)N)n3cc(C[C@@H](C)CC)nn3)CC2)n1` gave an IC50 of 19.5 µM. With `CCc1ccc2c(c1)C1(NN=C(c3ccc(C)cc3)S1)C(=O)N2` (stereo not drawn) the IC50 was 38.5 µM. In the case of `NC(N)=N/N=C/c1ccc(OCc2ccc(Cl)cc2Cl)cc1`, the IC50 is reported as 10.3 µM. Compound `COc1cc([N+](=O)[O-])cc(/C=N/NC(=O)C(O)(c2ccccc2)c2ccccc2)c1O` has an IC50 of 80 µM. In the case of `CCc1ccc(NC(=O)Nc2ccncc2)cc1`, the IC50 is reported as 88.4 µM. Compound `CCCCNCCCOc1cccc(Cl)c1Cl` has an IC50 of 58.5 µM. `CN(C)CCCN(C(=O)c1ccc2c(c1)CCCC2)c1nc2ccc(Cl)cc2s1` gave an IC50 of 54.1 µM.
